We go through six compounds from patent publication US6448251B1, “Zwitterionic-fatty acid compounds having anti-inflammatory properties” (priority 1997, dated 2002).

Where two headings read alike, the source gives them in different places.

In series [1] the test system is erythema induced by the capsaicin. The experiment in a line: Protocol II dermal irritation: capsaicin-induced erythema on human forearm, infra-red reflection. It is filed as in vivo. The settings on record: 0.1% capsaicin on forearm of human volunteer; candidate applied when erythema appeared 10-15 minutes later; optical reflection at 818 nanometers measured 30 minutes later; baseline control 3.5, capsaicin only 0.5. From the text:
A new screening method was developed to make rapid assessments on the anti-inflammatory action of the new candidates. The procedure involved the use of a natural irritant, capsaicin*, which candidate is derived from crushed hot peppers (capsicum), and measuring the amount of erythema reduction by the test candidates. Inflammatory reaction are characterzed by pain and tenderness associated with swelling and redness. Most of these clinical signs are attributed to the large influx of blood into the area. Vaso-constricting agents can reduce the amount of swelling and erythema. Hydrocortisone is, in fact, assayed by its ability to blanch the skin, which is a vasoconstrictive effect. Applying a solution of 0.1% of capsaicin to the forearm of a human volunteer will produce an erythema in less than 20 minutes, usually under five minutes. The degree of erythema is measured with an infra-red detector. An infra-red beam of light at 818 nanometers is directed into the skin over the test sie and the amount of infra-red returned to the surface by reflection indicates the amount absorbed in the skin. An untreated skin area is used as a baseline control, a capsaicin treated area is used as the negative control, and a capsaicin+hydrocortisone (a known vasoconstrictor) serves as the positive control. A positive effect means the erythema induced by the capsaicin is reduced, or is eliminated, as measured by the infra-red detector. The following reults were obtained with this evaluative protocol. The capsaicin was applied to the skin, and when erythema appeared 10-15 minutes later, the test candidate agent was applied, and the optical reflection measurements were made 30 minutes later.

For series [2] the following is noted: intravenous injection, radiolabelled; cited from earlier work.
In the next series the test system is inflammation. The settings on record: cited from earlier work.

Consider `CCCCCC=CCC=CCCCCCCCC(=O)OCCN1CCN(CCS(=O)(=O)O)CC1` [Compound V, Hepes-Linoleate Ester], for which, in series [1], the “Millivolts (reflection voltage)” value is 3.8 Millivolts.

As to `CC(=O)OCCN1CCN(CCS(=O)(=O)[O-])CC1.[Na+]` [Compound VI, Hepes-Acetate Ester], the “Millivolts (reflection voltage)” value in series [1] is 3.0 Millivolts.

As for `O=S(=O)(O)CCN1CCN(CCO)CC1` [HEPES, 4-(2-Hydroxyethyl)-1-piperazine-ethanesulfonic acid], in series [2], the clearance entry is recorded as “rapid clearance” and the “half-life compared with taurine” value is on record as “significantly longer half-life”. The “anti-inflammatory effects compared with taurine” value in the series on inflammation (HEPES sodium salt and the acid, Mahon et al) is on record as “greater anti-inflammatory effects”.

In the case of `C[C@]12CCC(=O)C=C1CC[C@@H]1[C@@H]2[C@@H](O)C[C@@]2(C)[C@H]1CC[C@]2(O)C(=O)CO` [Hydrocortisone], in series [1], the “Millivolts (reflection voltage)” value stood at 5.0 Millivolts.

For `NCCS(=O)(=O)O` [taurine, 2-amino ethanesulfonic acid], the clearance entry in series [2] was “rapid clearance”. Also, the anti-inflammatory activity entry was “demonstrated anti-inflammatory activity” with inflammation (administered centrally) and “not” with inflammation (administered subcutaneously or interperitoneally).

For HEPES oleate, sodium salt [Compound I], the “Millivolts (reflection voltage)” value in series [1] is given as 3.7 Millivolts.
